Experimental data published in ChEMBL document CHEMBL1201862, “PubChem BioAssay data set” (2004).
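48-hour exposure; five concentrations; linearly interpolated endpoints. Here, GI50 denotes the concentration required for 50% inhibition of growth.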 Active and inactive are the calls of the source. No stated cut-off is given here; in the data, active = GI50 up to about 1.1 µM and inactive = higher.

How the values were obtained:
Assay in all cases: inhibition of tumour cell growth, NCI panel, 48 h
[1] = system: SK-OV-3
[2] = system: OVCAR-4
[3] = system: A549
[4] = system: HOP-62
[5] = system: NCI-H226
[6] = system: SR
[7] = system: A498
[8] = system: EKVX
[9] = system: PC-3
[10] = system: HOP-92
[11] = system: MDA-MB-231
[12] = system: MDA-MB-435
[13] = system: OVCAR-8
[14] = system: HCT-116
[15] = system: MDA-N
[16] = system: 786-0
[17] = system: RXF 393
[18] = system: SK-MEL-2
[19] = system: HT-29

SMILES	GI50 [1]	GI50 [2]	GI50 [3]	GI50 [4]	GI50 [5]	GI50 [6]	GI50 [7]	GI50 [8]	GI50 [9]	GI50 [10]	GI50 [11]	GI50 [12]	GI50 [13]	GI50 [14]	GI50 [15]	GI50 [16]	GI50 [17]	GI50 [18]	GI50 [19]
Cc1c(C#N)c2ccccc2c2nc3ccccc3n12	98.9 µM (inactive)	38.4 µM (inactive)	93.1 µM (inactive)	75.5 µM (inactive)	> 100 µM (inactive)	> 10 µM (inactive)	> 100 µM (inactive)	> 100 µM (inactive)	> 100 µM (inactive)	> 100 µM (inactive)	20.6 µM (inactive)	> 100 µM (inactive)	> 100 µM (inactive)	24.9 µM (inactive)	67.6 µM (inactive)	37.9 µM (inactive)	> 100 µM (inactive)	> 100 µM (inactive)	
COc1ccc(C2CC(c3c(C)nn(-c4ccccc4)c3-c3ccc(C)cc3O)=NN2c2ccccc2)cc1 (configuration not stated)	> 100 µM (inactive)	> 45.7 µM (inactive)	4.35 µM (inactive)	> 100 µM (inactive)	> 24 µM (inactive)	13.3 µM (inactive)	> 100 µM (inactive)	> 33.5 µM (inactive)	3.78 µM (inactive)	> 100 µM (inactive)	> 46.5 µM (inactive)	15 µM (inactive)	20.4 µM (inactive)	12.7 µM (inactive)	21.4 µM (inactive)	> 100 µM (inactive)	8.13 µM (inactive)	14.1 µM (inactive)	
CC(=O)c1c2n(n(-c3ccccc3)c1=O)C(=O)c1nccnc1-2	> 100 µM (inactive)	> 100 µM (inactive)	> 100 µM (inactive)		> 100 µM (inactive)	> 100 µM (inactive)	> 100 µM (inactive)	> 100 µM (inactive)	> 100 µM (inactive)	> 100 µM (inactive)	> 100 µM (inactive)	> 100 µM (inactive)	> 100 µM (inactive)	> 100 µM (inactive)	> 100 µM (inactive)	> 100 µM (inactive)	> 100 µM (inactive)	> 100 µM (inactive)	> 100 µM (inactive)
CCOC(=O)CC[C@H](N)C(=O)N[C@@H](Cc1ccc(N(CCCl)CCCl)cc1)C(=O)OCC	1.48 µM (inactive)	0.565 µM (active)	2.73 µM (inactive)	2.37 µM (inactive)	11.1 µM (inactive)	< 0.0201 µM (active)	17.7 µM (inactive)	2.3 µM (inactive)	1.29 µM (inactive)	0.475 µM (active)	1.94 µM (inactive)	1.39 µM (inactive)	0.891 µM (active)	0.851 µM (active)	0.944 µM (active)	0.685 µM (active)	0.658 µM (active)	2.69 µM (inactive)	1.1 µM (active)
CC(=O)OCC1OC(N2C(c3ccccc3)=CC(c3ccco3)C(C#N)=C2S)C(OC(C)=O)C(OC(C)=O)C1OC(C)=O (configuration not stated)	21.7 µM (inactive)	3.33 µM (inactive)	9.44 µM (inactive)	6.27 µM (inactive)	6.71 µM (inactive)	7.85 µM (inactive)	15.2 µM (inactive)	> 29 µM (inactive)	11.5 µM (inactive)	6.22 µM (inactive)	3.13 µM (inactive)	8.11 µM (inactive)	2.83 µM (inactive)	3.18 µM (inactive)	11.3 µM (inactive)	2.03 µM (inactive)	4.06 µM (inactive)	28.8 µM (inactive)	5.94 µM (inactive)
COC(=O)C(=O)C(C(=O)OC)C(=O)C(=O)Nc1ccccc1C(N)=O (configuration not stated)	> 100 µM (inactive)	66.5 µM (inactive)	> 100 µM (inactive)	> 100 µM (inactive)	> 100 µM (inactive)	> 100 µM (inactive)	> 100 µM (inactive)	> 100 µM (inactive)	> 100 µM (inactive)	> 100 µM (inactive)	> 100 µM (inactive)	> 100 µM (inactive)	> 100 µM (inactive)	> 100 µM (inactive)	> 100 µM (inactive)	> 100 µM (inactive)	> 100 µM (inactive)	> 100 µM (inactive)	> 100 µM (inactive)
CCOC(=O)c1c(C)nc2c3ccccc3c(C#N)c(C)n12	21.2 µM (inactive)	94 µM (inactive)	50.1 µM (inactive)	26.2 µM (inactive)	> 100 µM (inactive)	33.9 µM (inactive)	> 100 µM (inactive)	6.65 µM (inactive)	> 100 µM (inactive)	58.7 µM (inactive)	14.3 µM (inactive)	> 100 µM (inactive)	49.1 µM (inactive)	37.2 µM (inactive)	> 10 µM (inactive)	> 10 µM (inactive)	33.4 µM (inactive)	> 100 µM (inactive)	
Cc1cc(C)nc(NC(=O)c2ccc(Br)s2)c1	> 100 µM (inactive)	> 100 µM (inactive)	48.4 µM (inactive)	> 100 µM (inactive)	> 100 µM (inactive)	> 100 µM (inactive)	30.5 µM (inactive)	76.7 µM (inactive)	> 100 µM (inactive)	> 100 µM (inactive)	21.7 µM (inactive)	79.1 µM (inactive)	> 100 µM (inactive)	10.7 µM (inactive)	31.8 µM (inactive)	> 100 µM (inactive)	> 100 µM (inactive)	> 100 µM (inactive)	> 100 µM (inactive)
CCOC(=O)c1cc2c(C(=O)c3ccc([N+](=O)[O-])cc3)c(C(C)=O)ccc2[nH]1	9.06 µM (inactive)	5.52 µM (inactive)	39.4 µM (inactive)	4.43 µM (inactive)	51.4 µM (inactive)	> 100 µM (inactive)	50.5 µM (inactive)	> 100 µM (inactive)	> 100 µM (inactive)	13.2 µM (inactive)	16.9 µM (inactive)	7.66 µM (inactive)		45.6 µM (inactive)	11.8 µM (inactive)	7.36 µM (inactive)	15.2 µM (inactive)	55.8 µM (inactive)	> 100 µM (inactive)
CCOC(=S)SC/C(=N\OC(C)(C)OC)c1ccccc1	43.7 µM (inactive)	69 µM (inactive)	44.7 µM (inactive)	42.1 µM (inactive)	43.8 µM (inactive)	14.5 µM (inactive)	72.6 µM (inactive)	48.9 µM (inactive)	59.4 µM (inactive)	20.7 µM (inactive)	> 100 µM (inactive)	25 µM (inactive)	88.7 µM (inactive)	24.9 µM (inactive)	36.1 µM (inactive)	55.1 µM (inactive)	25.6 µM (inactive)	20.7 µM (inactive)	23 µM (inactive)
CCn1c(-c2ccc(OC(C)=O)cc2)c(C)c2cc(OC(C)=O)ccc21 [ZINDOXIFENE]	23.1 µM (inactive)	18.1 µM (inactive)	15.4 µM (inactive)	21.3 µM (inactive)	30.1 µM (inactive)	5.27 µM (inactive)	23.6 µM (inactive)	17.9 µM (inactive)	13.7 µM (inactive)	30.1 µM (inactive)	14.6 µM (inactive)	12.5 µM (inactive)	20 µM (inactive)	6.84 µM (inactive)	17.3 µM (inactive)	21.9 µM (inactive)	6.82 µM (inactive)	18.5 µM (inactive)	29.5 µM (inactive)
c1ccc2c(c1)Nc1ccccc1[P+]21c2ccccc2Nc2ccccc21	0.267 µM (active)	0.447 µM (active)	0.182 µM (active)	0.313 µM (active)	0.0964 µM (active)	0.238 µM (active)	0.318 µM (active)	0.312 µM (active)	0.169 µM (active)	0.123 µM (active)	0.212 µM (active)	0.284 µM (active)	0.368 µM (active)	0.151 µM (active)	0.27 µM (active)	0.401 µM (active)	0.303 µM (active)	0.199 µM (active)	0.0853 µM (active)
C1CCN(CCC2CCCCN2)CC1 (configuration not stated)	> 100 µM (inactive)	> 100 µM (inactive)	> 100 µM (inactive)	> 100 µM (inactive)	> 100 µM (inactive)	> 100 µM (inactive)	> 100 µM (inactive)	> 100 µM (inactive)	> 100 µM (inactive)	> 100 µM (inactive)	> 100 µM (inactive)	> 100 µM (inactive)	> 100 µM (inactive)	> 100 µM (inactive)	> 100 µM (inactive)	> 100 µM (inactive)	> 100 µM (inactive)	> 100 µM (inactive)	> 100 µM (inactive)
Nc1nc(NCc2ccccc2)cc(NCc2ccccc2)n1	9.08 µM (inactive)	9.89 µM (inactive)	9.48 µM (inactive)	12.8 µM (inactive)	7.5 µM (inactive)	2.72 µM (inactive)	0.668 µM (active)	9.93 µM (inactive)	3.64 µM (inactive)	5.38 µM (inactive)	3.49 µM (inactive)	2.48 µM (inactive)	4.11 µM (inactive)	3.45 µM (inactive)	1.14 µM (inactive)	4.92 µM (inactive)	6.31 µM (inactive)	8.81 µM (inactive)	2.88 µM (inactive)
CC(C)=C[C@H]1C[C@H](C)[C@H]2CC[C@H](C)c3c2c1c(C)c1ncoc31		19.2 µM (inactive)	14.9 µM (inactive)		16.8 µM (inactive)	14.1 µM (inactive)	19.9 µM (inactive)	15.9 µM (inactive)	17 µM (inactive)	16.6 µM (inactive)	20.4 µM (inactive)	17.8 µM (inactive)	19.2 µM (inactive)	18.6 µM (inactive)	17.5 µM (inactive)	18.5 µM (inactive)	11.9 µM (inactive)	14.9 µM (inactive)	
